Data: publication PMC6154605, “Multi-Anti-Parasitic Activity of Arylidene Ketones and Thiazolidene Hydrazines against Trypanosoma cruzi and Leishmania spp” (Molecules : A Journal of Synthetic Chemistry and Natural …, 2017)

Assays:
[1] = test system: J774.1 murine macrophages; conditions: J774.1; read-out: IC50 ± SD Murine Macrophages; cited from earlier work
cruzipain = cruzipain (Trypanosoma cruzi, UniProt P25779); experiment: Inhibition of T. cruzi cruzipain; format: biochemical; conditions: at 100 µM; read-out: Percentage of Inhibition Cruzipain
Sequence of cruzipain (P25779 123-467): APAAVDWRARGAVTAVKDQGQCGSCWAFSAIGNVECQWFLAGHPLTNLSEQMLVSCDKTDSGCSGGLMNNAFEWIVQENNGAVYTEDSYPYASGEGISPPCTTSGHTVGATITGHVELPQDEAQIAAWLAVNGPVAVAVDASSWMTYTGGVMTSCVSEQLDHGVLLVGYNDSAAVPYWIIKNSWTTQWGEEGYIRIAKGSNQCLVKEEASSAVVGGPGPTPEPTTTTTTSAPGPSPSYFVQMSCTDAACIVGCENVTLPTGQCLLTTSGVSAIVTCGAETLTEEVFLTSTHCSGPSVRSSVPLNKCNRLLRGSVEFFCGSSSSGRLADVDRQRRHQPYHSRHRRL
Protocol: Cruzipain was purified to homogeneity from epimastigotes of the Tulahuen 2 strain by ConA–Sepharose affinity chromatography, as previously described. Cruzipain (2.5 μM ε = 58,285 M^−1cm^−1) was incubated in 50 mM acetate buffer pH 5.5 with 5 mM DTT, and 100 μM inhibitor were added, shaking the solution for 15 min at 27 °C. The derivatives were added as solutions in DMSO, and the controls contained the same solvent concentration. The concentration of DMSO never exceeded 1% in the reaction medium. L-leucylam-ido(4-guanidino)butane (E-64) was used as a positive control of inhibition. Then, the fluorogenic substrate Z-Phe-Arg 7-amido-4-methylcoumarin hydrochloride (Z-Phe-Arg-AMC) at 10 μM was added, and the fluorescence was measured during 10 min at intervals of 3 s (excitation at 380 nm and emission at 460 nm) using a Varioskan Flash Spectrophotometer. From the slope of the negative control, we calculated the total (100%) enzyme activity, while the slopes obtained in the presence of the compounds yielded the percentage of remaining enzyme activity. The percentage of enzyme inhibition was determined as […]. The experiments were done in duplicate.

[2] = target: triosephosphate isomerase from T. cruzi (TcTIM) (Trypanosoma cruzi, UniProt P52270); experiment: Inhibition of triosephosphate isomerase; conditions: read-out: Percentage of Inhibition TcTIM
Sequence of triosephosphate isomerase from T. cruzi (TcTIM) (P52270 whole entry): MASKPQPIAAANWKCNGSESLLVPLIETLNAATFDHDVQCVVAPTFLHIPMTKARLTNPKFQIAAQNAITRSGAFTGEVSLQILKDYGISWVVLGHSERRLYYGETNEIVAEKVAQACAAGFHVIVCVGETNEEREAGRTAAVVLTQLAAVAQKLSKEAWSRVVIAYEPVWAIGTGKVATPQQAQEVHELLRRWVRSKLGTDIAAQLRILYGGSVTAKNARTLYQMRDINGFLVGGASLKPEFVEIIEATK
Protocol: Expression and purification of proteins: TcTIM, LmTIM and HsTIM were expressed in Escherichia coli and purified as described in the literature [39]. […] Before use, extensive dialysis against 100 mM triethanolamine/10 mM EDTA (pH 7.4) was performed.
Enzymatic activity assays: Enzymatic activity was determined following the conversion of glyceraldehyde 3-phosphate into dihydroxyacetone phosphate. […] The reaction mixture (1 mL, pH 7.4) contained 100 mM triethanolamine, 10 mM EDTA, 0.2 mM NADH, 1 mM glyceraldehyde 3-phosphate and 0.9 units of α-glycerol phosphate dehydrogenase. The reaction was initiated by the addition of 5 ng/mL of the TcTIM.
The mixture also contained the compounds at the indicated concentrations. Compounds were dissolved in DMSO. After 2 h, 10 µL was withdrawn and added to a final volume of 100 µL of the reaction mixture for the activity assay. The inhibition assay was performed in a 96-well microplate Varioskan spectrophotometer. […] The experiments were performed in triplicate.

## C=CCn1c(-c2ccc(Cl)cc2)cs\c1=N/N=C/C=C/c1ccco1 [GAT1033]
[1]
  IC50: 60 ± 6 µM
cruzipain
  inhibition at 100 µM: 0%
[2]
  inhibition at 100 µM: 0%
